In patent US9107946B2, “Drug combinations comprising a DGAT inhibitor and a PPAR-agonist” (Janssen Pharmaceutica NV, priority 2008, dated 2015):
Where two headings read alike, the source gives them in different places.

Columns and labels:
[1] = molecular target: T1, human DGAT1 (Homo sapiens, UniProt O75907); test: DGAT1 FlashPlate assay: inhibition of DGAT1 activity in membrane preparations; format: biochemical; conditions: human DGAT1 membranes from SF9 cells, [3H]-oleoylCoA, 120 min at 37° C.; read-out: pIC50 (-logIC50, 50% inhibition of DGAT1 activity) (converted)
T1 construct: FLAG (N); made in house; host or cells: SF9 insect cells (pFastBac / baculovirus); total cell membranes
T1 sequence (O75907 1-488): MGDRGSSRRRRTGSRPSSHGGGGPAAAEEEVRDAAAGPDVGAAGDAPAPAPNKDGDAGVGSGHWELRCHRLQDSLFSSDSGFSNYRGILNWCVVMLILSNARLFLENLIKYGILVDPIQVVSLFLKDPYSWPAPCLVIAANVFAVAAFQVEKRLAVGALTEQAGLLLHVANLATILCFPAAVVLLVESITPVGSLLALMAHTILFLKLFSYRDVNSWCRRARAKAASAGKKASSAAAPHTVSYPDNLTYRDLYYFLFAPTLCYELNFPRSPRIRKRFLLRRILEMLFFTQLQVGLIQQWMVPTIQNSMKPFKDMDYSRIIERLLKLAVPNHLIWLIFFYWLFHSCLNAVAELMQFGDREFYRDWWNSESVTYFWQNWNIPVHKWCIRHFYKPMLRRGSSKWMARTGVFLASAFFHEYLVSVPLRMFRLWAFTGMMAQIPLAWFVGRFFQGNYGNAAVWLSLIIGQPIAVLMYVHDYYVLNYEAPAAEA
Description: The inhibiting activity of compounds of Class A, Class B, Class C and Class D on DGAT1 activity was screened in a single well procedure assay using DGAT1 comprising membrane preparations and DGAT1 substrate comprising micelles and determining formed radio-active triacylglycerol coming in close proximity of a flashplate surface by radioluminescence.
Said assay is described in full detail in WO2006/067071, the content of which is incorporated herein by reference.
By DGAT1 activity is meant the transfer of coenzyme A activated fatty acids to the 3-position of 1,2-diacylglycerols, thus forming a triglyceride molecule, by enzyme DGAT1.
human DGAT1 (NM012079.2) was cloned into the pFastBac vector, containing translation start, a FLAG-tag at the N-terminus as described in literature and a viral Kozak sequence (AAX) preceding the ATG to improve expression in insect cells. Expression was done as described in literature (Cases, S., Smith, S. J., Zheng, Y., Myers H. M., Lear, S. R., Sande, E., Novak, S., Collins, C., Welch, C. B., Lusis, A. J., Erickson, S. K. and Farese, R. V. (1998) Proc. Natl. Acad. Sci. USA 95, 13018-13023.) using SF9 cells.
72h transfected SF9 cells were collected by centrifugation (13000 rpm-15 min-4° C.) and lysed in 2×500 ml lysisbuffer (0.1M Sucrose, 50 mM KCl, 40 mM KH2PO4, 30 mM EDTA pH 7.2. Cells were homogenized by cell disruptor. After centrifugation 1380 rpm-15 min-4° C. (SN discarded), pellet was resuspended in 500 ml lysisbuffer and total cell membranes collected by ultracentrifugation at 34000 rpm(100 000 g) for 60 min (4° C.). The collected membranes were resuspended in lysis buffer, divided in aliquots and stored with 10% glycerol at −80° C. until use.
• a) 1,2-dioleoyl-sn-glycerol, 10 mg/ml (1,2-diacylglycerol (DAG)) Dissolve in acetonitrile; evaporate the acetonitrile solution under nitrogen and reconstitute in chloroform at a final concentration of 10 mg/ml. • b) L-α-phosphatidylcholine, 1 mg/ml (phosphatidylcholine (PC)) • Dissolve in chloroform at a final concentration of 1 mg/ml and store at 4° C. • c) L-α-phosphatidyl-L-serine, 1 mg/ml (phophatidylserine (PS)) • Dissolve in chloroform at a final concentration of 1 mg/ml and store at 4° C. Method
Add 1 ml dioleoyl-sn-glycerol (10 mg/ml) to 10 ml of L-α-phosphatidylcholine (1 mg/ml) and 10 ml of L-α-phosphatidyl-L-serine (1 mg/ml) in a thick glass recipient. Evaporate under nitrogen and put on ice for 15 min Reconstitute in 10 ml Tris/HCl (10 mM, pH 7.4) by sonication on ice. The sonification process includes sonification cycles of 10 seconds in the sonification bath followed by 10 seconds cool down on ice and repeating this sonification cycle till a homogeneous solution is obtained (takes about 15 min). The thus obtained micelles are stored at −20° C. till later use and contain DAG at a final concentration of 1.61 mM.
• a) Assaybuffer • 50 mM Tris-HCl (pH 7.4), 150 mM MgCl2, 1 mM EDTA, 0.2% BSA. • b) N-ethylmaleimide, 5M • Dissolve 5 g into a final volume of 8 ml DMSO 100% and store at −20° C. in aliquots till later use. • c) Substrate mix (for 1 384 well plate=3840 μl) • 612 μl micelles stock (51 μM final) • 16.6 μl oleoylCoA 9.7 mM • 23 μl [^3H]-oleoylCoA (49 Ci/mmol, 500 μCi/ml) • 3188.4 μl Tris pH 7.4, 10 mM • d) Enzyme mix (for 1 384 well plate=3520 μl) (5 μg/ml) • Add 11.73 μl of DGAT membrane stock (1500 μg/ml stock) to 3508 μl assay buffer. • e) Stop mix (for 1 384 well plate=7.68 ml) (250 mM) • Add 384 μl of N-ethylmaleimide (5M) to 3.456 ml DMSO 100%, and further dilute 3.84 ml of said solution with 3.84 ml DMSO 10%. Method
DGAT activity in membrane preparations was assayed in 50 mM Tris-HCl (pH 7.4), 150 mM MgCl2, 1 mM EDTA and 0.2% BSA, containing 50 μM DAG, 32 μg/ml PC/PS and 8.4 μM [^3H]-oleoylCoA (at a specific activity of 30 nCi/well) in a final volume of 50 μl in 384-well format using the red shifted Basic Image FlashPlate™ (Perkin Elmer Cat.No. SMP400). […]

[2] = 0.04% compound 358 of Class D and/or 0.05% fenofibrate in diet
Description: Male C57BL/6 mice were housed in individually ventilated cages under controlled temperature (21° C.), humidity (45-65%) and light (12 h-12 h reverse light/dark cycle; Lights on—6 PM-6 AM). Mice were set on 60 kcal % fat energy diet until their average body weight was over 45 grams, at which time they were switched to a 45 kcal % fat diet.
For the purpose of Tests A, B and C, the mice were moved into modified type-2 cages with: doublewide food cup, wire grids and a tissue for bedding for several months before experiment to adapt to new housing/feeding conditions. Food (Research diets 45 kcal % diet D12451—see Scheme A) was provided in powdered form in a food hopper located off the front of the cage. […]
The mice were weighted the day before trial onset. […] The food intake the day before trial onset was also measured. […]
Food cups were filled and weighted daily during the experiment. Body weight was recorded every 2nd or 3rd day.
Food Intake and Body Weight data were analyzed using General Linear Models procedures appropriate for a 2×2 factorial design with blocking and repeated measures. […] Results were expressed as means±SEM (standard error of the mean). […]

[3] = Test A: food intake, body weight and serum biochemistry, DGAT inhibitor, fenofibrate or both in diet; format: in vivo, DIO C57BL/6 mice; conditions: 12 day trial, 45 kcal % fat diet; for cumulative food intake less than the control group: 0.04% D and/or 0.05% F in diet, only D+F significant (P<0.05)
Description: Diet was provided in powder form.
At the end of test A, blood was collected under isoflurane anesthesia for serum biochemistry determinations.

Compound | IC50 [1] | melting point | 21 days body weight change compared to controls (2x2 factorial) ([2]; main effects P<0.05, interaction P>0.05) | daily food intake compared to control mice ([2]; 45 kcal % fat diet, n=8/group) | cumulative food intake less than the control group [3] | daily food intake compared to control mice ([3]; 0.04% compound 223 of Class D (D) and/or 0.05% fenofibrate (F) in diet)
COc1cc(CNC(=O)c2ccc(N3CCN(C(=O)Cc4c(Cl)cc(CN5CCCC5)cc4Cl)CC3)cc2)cc(OC)c1 [358-Class D, 4-[4-[[2,6-dichloro-4-(1-pyrrolidinylmethyl)phenyl]acetyl]-1-piperazinyl]-N-[(3,5-dimethoxyphenyl)methyl]-benzamide] | 25.7 nM | 199 to 200 °C | gained less weight than controls | not significantly less than control mice | – | –
COc1ccc(CC(=O)Nc2ccc(N3CCN(C(=O)Nc4c(Cl)cc(CN5CCCC5)cc4Cl)CC3)cc2)cc1 [compound 223 of Class D] | – | – | – | – | 3.2% | not significantly less than control mice
CC(C)OC(=O)C(C)(C)Oc1ccc(C(=O)c2ccc(Cl)cc2)cc1 [fenofibrate, reference compound] | – | – | – | – | 7.5% | –

The next lines start with results.

IC50 [1] | melting point | Compound | 21 days body weight change compared to controls (2x2 factorial) ([2]; main effects P<0.05, interaction P>0.05) | daily food intake compared to control mice ([2]; 45 kcal % fat diet, n=8/group) | cumulative food intake less than the control group [3] | daily food intake compared to control mice ([3]; 0.04% compound 223 of Class D (D) and/or 0.05% fenofibrate (F) in diet)
13.5 nM | 164 to 166 °C | CC(=O)N1CCN(Cc2cc(Cl)c(CC(=O)N3CCN(c4ccc(C(=O)NCc5cccc(N6CCCC6)c5)cc4)CC3)c(Cl)c2)CC1 [361-Class D, 4-[4-[[4-[(4-acetyl-1-piperazinyl)methyl]-2,6-dichlorophenyl]acetyl]-1-piperazinyl]-N-[[3-(1-pyrrolidinyl)phenyl]methyl]-benzamide] | – | – | – | –
9.12 nM | 123 to 126 °C | COc1cc(CNC(=O)c2ccc(N3CCN(C(=O)Cc4c(Cl)cc(CN5CCN(C(C)=O)CC5)cc4Cl)CC3)cc2)cc(OC)c1 [362-Class D, 4-[4-[[4-[(4-acetyl-1-piperazinyl)methyl]-2,6-dichlorophenyl]acetyl]-1-piperazinyl]-N-[(3,5-dimethoxyphenyl)methyl]-benzamide] | – | – | – | –
11.5 nM | 241 to 243 °C | CS(=O)(=O)N1CCN(Cc2cc(Cl)c(CC(=O)N3CCN(c4ccc(C(=O)NCc5cccc(N6CCCC6)c5)cc4)CC3)c(Cl)c2)CC1 [363-Class D, 4-[4-[[2,6-dichloro-4-[[4-(methylsulfonyl)-1-piperazinyl]methyl]phenyl]acetyl]-1-piperazinyl]-N-[[3-(1-pyrrolidinyl)phenyl]methyl]-benzamide] | – | – | – | –
5.75 nM | 152 to 154 °C | COc1cc(CNC(=O)c2ccc(N3CCN(C(=O)Cc4c(Cl)cc(CN5CCN(S(C)(=O)=O)CC5)cc4Cl)CC3)cc2)cc(OC)c1 [364-Class D, 4-[4-[[2,6-dichloro-4-[[4-(methylsulfonyl)-1-piperazinyl]methyl]phenyl]acetyl]-1-piperazinyl]-N-[(3,5-dimethoxyphenyl)methyl]-benzamide] | – | – | – | –
